This passage reports IC50 and microsomal CLint results from patent publication US12595253B2, “Benzamides of pyrazolylamino-pyrimidinyl derivatives, and compositions and methods thereof” (LYNK PHARMACEUTICALS CO. LTD., priority 2019, dated 2026).

The target in one series is T1, CYP2C9 (Homo sapiens, UniProt P11712).
T1 construct: 0.2 mg/mL human liver microsomes was pre-incubated in 180 μL reaction mixture; from tissue; host or cells: pooled human liver microsomes
The series can be described thus: CYPs inhibition in pooled human liver microsomes, probe substrate Diclofenac. In kind it is in vitro ADME. The protocol: (§1) The inhibitory potential of test articles in pooled human liver microsomes was evaluated by the method using a cocktail of CYP substrates. […] For the negative control well, the test articles was replaced with 20 μL reaction buffer. After 10 min of pre-incubation at 37° C., 20 μL 10 mM NADPH cofactor was added to the pre-reaction mixtures. After another 10 min incubation, the reaction was stopped by adding 400 μL of ice cold acetonitrile solution containing tolbutamide and labetalol served as internal standards. The incubation mixtures were centrifuged at 4000×g for 20 min, and then the supernatants were analyzed by LC-MS/MS after dilution. SigmaPlot was applied to plot % control activity versus the test compound concentrations, and for non-linear regression analysis of the data. IC50 values of test articles were determined using 3-parameter logistic equation.

The target in the next series is T2, CYP3A4 (Homo sapiens, UniProt P08684).
T2 construct: 0.2 mg/mL human liver microsomes was pre-incubated in 180 μL reaction mixture; from tissue; host or cells: pooled human liver microsomes
T2 sequence (P08684 whole entry): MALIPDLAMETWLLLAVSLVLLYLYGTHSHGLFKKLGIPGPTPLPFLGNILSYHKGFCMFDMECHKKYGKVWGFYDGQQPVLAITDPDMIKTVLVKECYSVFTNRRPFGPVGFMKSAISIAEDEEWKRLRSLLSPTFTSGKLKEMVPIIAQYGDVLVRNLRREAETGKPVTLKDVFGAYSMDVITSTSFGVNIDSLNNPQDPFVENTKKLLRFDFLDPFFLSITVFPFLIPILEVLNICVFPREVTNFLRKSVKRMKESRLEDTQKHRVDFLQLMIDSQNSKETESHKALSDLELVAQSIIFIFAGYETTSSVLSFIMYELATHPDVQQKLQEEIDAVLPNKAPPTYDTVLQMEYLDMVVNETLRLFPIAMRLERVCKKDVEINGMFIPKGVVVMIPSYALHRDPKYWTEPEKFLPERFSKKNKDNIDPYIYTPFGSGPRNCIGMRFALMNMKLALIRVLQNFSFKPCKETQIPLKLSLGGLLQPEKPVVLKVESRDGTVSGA
Put plainly: CYPs inhibition in pooled human liver microsomes, probe substrate Midazolam. In kind it is in vitro ADME. On the procedure: as §1

The target in the next series is T3, CYP2D6 (Homo sapiens, UniProt P10635).
T3 construct: 0.2 mg/mL human liver microsomes was pre-incubated in 180 μL reaction mixture; from tissue; host or cells: pooled human liver microsomes
T3 sequence (P10635 whole entry): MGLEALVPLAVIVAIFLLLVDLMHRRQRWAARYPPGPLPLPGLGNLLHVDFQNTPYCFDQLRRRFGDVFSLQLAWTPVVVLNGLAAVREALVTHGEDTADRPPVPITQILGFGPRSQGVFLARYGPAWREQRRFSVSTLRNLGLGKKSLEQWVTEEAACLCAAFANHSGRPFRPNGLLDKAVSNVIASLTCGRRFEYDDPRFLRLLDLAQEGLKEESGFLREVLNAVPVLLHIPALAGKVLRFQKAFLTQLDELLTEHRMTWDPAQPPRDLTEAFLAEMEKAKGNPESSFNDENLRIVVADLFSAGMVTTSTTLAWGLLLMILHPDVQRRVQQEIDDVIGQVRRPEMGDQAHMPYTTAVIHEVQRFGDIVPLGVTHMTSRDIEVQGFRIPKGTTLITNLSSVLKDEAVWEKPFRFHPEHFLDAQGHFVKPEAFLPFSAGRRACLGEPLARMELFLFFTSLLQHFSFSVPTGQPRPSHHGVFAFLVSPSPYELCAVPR
Put plainly: CYPs inhibition in pooled human liver microsomes, probe substrate Dextromethorphan. In kind it is in vitro ADME. On the procedure: as §1

The target of a further series is T4, JAK2V617F (Homo sapiens, UniProt O60674, V617F).
T4 construct: purchased Carna Biosciences
The series can be described thus: JAK2V617F microfluidic kinase assay (Caliper EZ Reader II, FAM labeled peptide substrate). The following applies: JAK2V617F 2.5 nM, 1 mM ATP. The series is classed as biochemical. The gist of the method:
(§2)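 Microfluidic mobility-shift kinase assay in 50 mM HEPES, 0.01% Brij35, 10 mM MgCl2, 2 mM DTT. IC50 values come from percent-inhibition curves normalised to uninhibited and enzyme-free controls.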

A short description of series [1]: Liver microsomes study, Phase I stability (RLM). In kind it is in vitro ADME, rat. The note with it: pH 7.4; rat liver microsomes 0.5 mg/mL, 1 μM test article; read-out: RLM Clint. The procedure, abridged: (§3)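 Rat or human liver microsomes were incubated with test article, and reactions started with an NADPH regenerating system. Samples at 0, 10, 30 and 90 minutes were quenched with cold acetonitrile and analyzed by LC/MS/MS. T½ and CLint came from the ln(% remaining) versus time slope, scaled by protein concentration.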

The target of a further series is T5, JAK2 (Homo sapiens, UniProt O60674).
T5 construct: purchased Carna Biosciences
The series can be described thus: JAK2 microfluidic kinase assay (Caliper EZ Reader II, FAM labeled peptide substrate). In kind it is biochemical. The gist of the method:
as §2

For another series, the target named is T6, CYP2C19 (Homo sapiens, UniProt P33261).
T6 construct: 0.2 mg/mL human liver microsomes was pre-incubated in 180 μL reaction mixture; from tissue; host or cells: pooled human liver microsomes
T6 sequence (P33261 whole entry): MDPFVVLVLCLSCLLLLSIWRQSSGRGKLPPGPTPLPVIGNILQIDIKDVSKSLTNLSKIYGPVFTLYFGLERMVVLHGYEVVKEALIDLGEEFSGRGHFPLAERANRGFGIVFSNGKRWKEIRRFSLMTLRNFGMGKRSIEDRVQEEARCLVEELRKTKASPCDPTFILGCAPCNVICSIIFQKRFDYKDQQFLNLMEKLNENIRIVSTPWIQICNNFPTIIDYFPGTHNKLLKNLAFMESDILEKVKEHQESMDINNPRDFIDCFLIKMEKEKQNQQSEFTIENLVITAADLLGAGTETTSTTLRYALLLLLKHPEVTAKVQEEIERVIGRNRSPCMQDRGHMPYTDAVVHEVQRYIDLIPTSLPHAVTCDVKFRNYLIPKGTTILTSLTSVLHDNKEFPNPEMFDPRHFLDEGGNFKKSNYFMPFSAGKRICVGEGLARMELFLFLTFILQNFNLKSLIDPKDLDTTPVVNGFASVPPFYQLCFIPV
The series can be described thus: CYPs inhibition in pooled human liver microsomes, probe substrate S-mephenytoin. The series is classed as in vitro ADME. On the procedure: as §1

Series [2] in a line: Liver microsomes study, Phase I stability (HLM). The note with it: pH 7.4; human liver microsomes 0.5 mg/mL, 1 μM test article; read-out: HLM Clint. The series is classed as in vitro ADME, human. The gist of the method: as §3
The next series deals with T7, CYP1A2 (Homo sapiens, UniProt P05177).
T7 construct: 0.2 mg/mL human liver microsomes was pre-incubated in 180 μL reaction mixture; from tissue; host or cells: pooled human liver microsomes
T7 sequence (P05177 1-516): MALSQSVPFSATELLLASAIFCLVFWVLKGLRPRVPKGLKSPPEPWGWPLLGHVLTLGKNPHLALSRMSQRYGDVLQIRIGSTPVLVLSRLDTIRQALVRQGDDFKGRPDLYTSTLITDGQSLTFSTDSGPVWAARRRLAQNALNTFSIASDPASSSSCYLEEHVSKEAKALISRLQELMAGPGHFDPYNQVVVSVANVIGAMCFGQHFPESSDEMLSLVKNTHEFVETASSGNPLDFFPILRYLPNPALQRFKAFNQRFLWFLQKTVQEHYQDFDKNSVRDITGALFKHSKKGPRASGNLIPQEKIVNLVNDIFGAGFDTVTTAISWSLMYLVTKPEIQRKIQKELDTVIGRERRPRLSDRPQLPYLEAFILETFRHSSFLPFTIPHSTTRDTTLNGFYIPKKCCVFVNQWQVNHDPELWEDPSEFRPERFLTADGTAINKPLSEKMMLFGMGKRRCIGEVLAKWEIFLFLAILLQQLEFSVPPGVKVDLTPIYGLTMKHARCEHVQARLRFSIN
Put plainly: CYPs inhibition in pooled human liver microsomes, probe substrate Phenacetin. The series is classed as in vitro ADME. On the procedure: as §1

The target of the next series is T8, TYK2 (Homo sapiens, UniProt P29597).
T8 construct: purchased Carna Biosciences
T8 sequence (P29597 whole entry): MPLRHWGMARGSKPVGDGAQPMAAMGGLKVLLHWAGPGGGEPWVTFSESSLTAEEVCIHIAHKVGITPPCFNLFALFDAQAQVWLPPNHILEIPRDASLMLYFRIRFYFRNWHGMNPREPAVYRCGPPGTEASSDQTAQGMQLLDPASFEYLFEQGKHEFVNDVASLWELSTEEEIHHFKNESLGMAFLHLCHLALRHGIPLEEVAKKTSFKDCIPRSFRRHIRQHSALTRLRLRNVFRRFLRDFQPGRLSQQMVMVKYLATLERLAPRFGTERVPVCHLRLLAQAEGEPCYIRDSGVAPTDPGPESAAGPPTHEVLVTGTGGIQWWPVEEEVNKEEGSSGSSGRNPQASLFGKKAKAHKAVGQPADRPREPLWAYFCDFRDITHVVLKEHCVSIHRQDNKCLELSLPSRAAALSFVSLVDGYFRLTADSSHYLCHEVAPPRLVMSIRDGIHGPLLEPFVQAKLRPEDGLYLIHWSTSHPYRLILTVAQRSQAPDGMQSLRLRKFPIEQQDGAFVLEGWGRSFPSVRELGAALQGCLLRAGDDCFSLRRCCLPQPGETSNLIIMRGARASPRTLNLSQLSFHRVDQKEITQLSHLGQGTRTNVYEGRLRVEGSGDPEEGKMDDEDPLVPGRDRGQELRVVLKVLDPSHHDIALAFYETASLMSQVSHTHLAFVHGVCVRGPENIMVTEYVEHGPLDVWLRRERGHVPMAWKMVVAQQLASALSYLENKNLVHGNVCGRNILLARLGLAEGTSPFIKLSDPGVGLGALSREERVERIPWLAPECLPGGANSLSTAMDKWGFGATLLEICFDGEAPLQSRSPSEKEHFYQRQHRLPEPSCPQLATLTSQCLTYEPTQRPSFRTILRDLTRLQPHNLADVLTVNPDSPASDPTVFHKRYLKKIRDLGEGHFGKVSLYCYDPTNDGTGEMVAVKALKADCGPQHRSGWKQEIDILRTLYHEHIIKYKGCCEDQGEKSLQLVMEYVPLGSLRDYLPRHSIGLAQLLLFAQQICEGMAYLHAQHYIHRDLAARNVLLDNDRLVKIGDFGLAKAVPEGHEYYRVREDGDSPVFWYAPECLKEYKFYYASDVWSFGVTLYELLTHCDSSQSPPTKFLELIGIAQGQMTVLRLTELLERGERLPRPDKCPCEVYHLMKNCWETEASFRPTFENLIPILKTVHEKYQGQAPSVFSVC
The series can be described thus: TYK2 microfluidic kinase assay (Caliper EZ Reader II, FAM labeled peptide substrate). In kind it is biochemical. The procedure, abridged: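 Kinase activity was measured in 50 mM HEPES, 0.01% Brij35, 10 mM MgCl2, 2 mM DTT with enzyme set for 10% peptide conversion. Compounds (3-fold dilutions from 5 μM top, 1% DMSO) were pre-incubated 10 min at ambient temperature. Reaction times: JAK1 120 min, JAK2 20 min, JAK2V617F 30 min, TYK2 10 min. EDTA stop.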

The next series addresses T9, JAK1 (Homo sapiens, UniProt P23458).
T9 construct: purchased Carna Biosciences
Put plainly: JAK1 microfluidic kinase assay (Caliper EZ Reader II, FAM labeled peptide substrate). The series is classed as biochemical. The procedure, abridged: as §2

Where [3] appears, read: IC50 JAK2 ([…]) (1 mM ATP), 1 mM ATP.
[4] abbreviates: IC50 JAK2 ([…]) (Km ATP), Km ATP.
[5] abbreviates: IC50 TYK2 ([…]) (1 mM ATP), TYK2 […], 1 mM ATP.
Where [6] appears, read: IC50 JAK1 (5 nM) (1 m MATP), JAK1 5 nM, 1 mM ATP.
[7] abbreviates: IC50 JAK1 (10 nM) (Km ATP), JAK1 10 nM, Km ATP.

Molecules are shown by their SMILES.

T1 sequence (P11712 whole entry): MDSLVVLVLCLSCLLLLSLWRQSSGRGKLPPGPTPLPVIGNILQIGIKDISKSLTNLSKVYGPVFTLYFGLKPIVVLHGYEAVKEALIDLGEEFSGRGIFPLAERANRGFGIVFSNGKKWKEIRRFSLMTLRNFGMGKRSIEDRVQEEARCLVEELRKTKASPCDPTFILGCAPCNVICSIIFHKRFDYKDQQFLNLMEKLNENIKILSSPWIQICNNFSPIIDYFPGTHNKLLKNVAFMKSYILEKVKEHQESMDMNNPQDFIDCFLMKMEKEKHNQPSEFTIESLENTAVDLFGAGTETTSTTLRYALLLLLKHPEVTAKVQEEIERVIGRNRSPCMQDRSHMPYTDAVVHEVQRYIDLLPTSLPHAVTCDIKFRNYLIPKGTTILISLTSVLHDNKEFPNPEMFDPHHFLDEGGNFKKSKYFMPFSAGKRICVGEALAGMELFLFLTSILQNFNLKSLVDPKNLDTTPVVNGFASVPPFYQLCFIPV
T9 sequence (P23458 whole entry): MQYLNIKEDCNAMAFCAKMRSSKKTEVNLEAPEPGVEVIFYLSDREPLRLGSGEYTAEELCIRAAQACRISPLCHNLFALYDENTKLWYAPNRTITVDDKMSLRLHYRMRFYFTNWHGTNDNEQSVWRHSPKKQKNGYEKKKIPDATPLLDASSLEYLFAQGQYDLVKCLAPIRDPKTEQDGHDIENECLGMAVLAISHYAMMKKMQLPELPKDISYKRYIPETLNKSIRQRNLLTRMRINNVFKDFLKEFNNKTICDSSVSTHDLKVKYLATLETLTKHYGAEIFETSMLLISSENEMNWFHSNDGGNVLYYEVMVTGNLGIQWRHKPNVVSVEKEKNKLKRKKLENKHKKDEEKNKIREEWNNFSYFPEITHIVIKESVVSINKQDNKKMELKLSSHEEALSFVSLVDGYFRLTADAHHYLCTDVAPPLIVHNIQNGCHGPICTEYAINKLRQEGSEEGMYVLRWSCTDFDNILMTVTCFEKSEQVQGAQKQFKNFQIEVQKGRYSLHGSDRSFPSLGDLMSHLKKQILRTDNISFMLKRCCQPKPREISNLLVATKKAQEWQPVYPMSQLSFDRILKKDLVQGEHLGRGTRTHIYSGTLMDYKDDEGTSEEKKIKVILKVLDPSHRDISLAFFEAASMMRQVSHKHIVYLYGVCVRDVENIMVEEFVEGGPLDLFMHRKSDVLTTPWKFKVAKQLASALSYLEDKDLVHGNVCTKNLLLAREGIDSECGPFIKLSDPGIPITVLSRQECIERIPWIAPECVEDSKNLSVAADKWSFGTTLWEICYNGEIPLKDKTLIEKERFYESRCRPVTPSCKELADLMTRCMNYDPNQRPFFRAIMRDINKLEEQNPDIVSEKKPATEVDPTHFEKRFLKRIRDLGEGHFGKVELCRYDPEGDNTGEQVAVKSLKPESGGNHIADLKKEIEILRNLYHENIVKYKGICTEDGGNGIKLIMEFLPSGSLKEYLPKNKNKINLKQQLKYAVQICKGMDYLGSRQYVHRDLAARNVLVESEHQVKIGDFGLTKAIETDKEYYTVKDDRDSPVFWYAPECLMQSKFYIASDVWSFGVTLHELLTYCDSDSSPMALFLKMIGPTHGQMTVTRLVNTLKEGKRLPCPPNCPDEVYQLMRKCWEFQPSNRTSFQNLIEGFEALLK

On to `CC(=O)N1CCC(n2cc(Nc3ncc(C)c(-c4ccc(C(=O)NCC#N)cc4)n3)cn2)CC1` [Example 20, 4-(2-((1-(1-Acetylpiperidin-4-yl)-1H-pyrazol-4-yl)amino)-5-methylpyrimidin-4-yl)-N-(cyanomethyl)benzamide], for which the IC50 was more than 50 µM on CYP2C9; more than 50 µM against CYP3A4; more than 50 µM on CYP2D6; 0.0137 µM against JAK2V617F; 0.0003 µM against JAK2 (setting [3]); 0.00025 µM at JAK2 (setting [4]). In addition, the IC50 on CYP2C19 and on CYP1A2 was more than 50 µM throughout. Further, the microsomal CLint at 1 μM in series [1] and in series [2] was less than 9.6 µL/min/mg throughout.
Turning to `Cc1cnc(Nc2cnn(C3CCN(C)CC3)c2)nc1-c1ccc(C(=O)N[C@@H](C)C#N)cc1` [Example 48, (S)—N-(1-cyanoethyl)-4-(5-methyl-2-((1-(1-methylpiperidin-4-yl)-1H-pyrazol-4-yl)amino)pyrimidin-4-yl)benzamide], the IC50 at TYK2 (setting [5]) is 0.0106 µM; against CYP2C9, more than 50 µM; against CYP3A4, more than 50 µM; on JAK1 (setting [6]), 0.00383 µM; on CYP2D6, more than 50 µM; against JAK2V617F it was 0.0317 µM. For the same compound, the IC50 at JAK2 (setting [3]) was 0.00102 µM; against CYP2C19, more than 50 µM; at CYP1A2, more than 50 µM. Further, the microsomal CLint at 1 μM in [1] was found to be 34.5 µL/min/mg; in [2] it was 4.64 µL/min/mg.
Turning to `CC[C@@H](C#N)NC(=O)c1ccc(-c2nc(Nc3cnn(C4CCN(C)CC4)c3)ncc2Cl)cc1` [Example 88, (S)-4-(5-chloro-2-((1-(1-methylpiperidin-4-yl)-1H-pyrazol-4-yl)amino)pyrimidin-4-yl)-N-(1-cyanopropyl)benzamide], the IC50 is 0.00668 µM on TYK2 (setting [5]); 45.3 µM on CYP2C9; 32.1 µM against CYP3A4; 0.00082 µM on JAK1 (setting [6]); 41.9 µM at CYP2D6; 0.00242 µM at JAK2V617F. The IC50 was 0.00061 µM on JAK2 (setting [3]), 24 µM at CYP2C19 and more than 50 µM on CYP1A2. Also, the results for the microsomal CLint at 1 μM in series [1] and in [2] were 221 µL/min/mg and 22.8 µL/min/mg, respectively.
As to `Cc1cnc(Nc2cnn(C3CCN(CC(F)F)CC3)c2)nc1-c1ccc(C(=O)NCC#N)cc1` [Example 19, N-(Cyanomethyl)-4-(2-((1-(1-(2,2-difluoroethyl)piperidin-4-yl)-1H-pyrazol-4-yl)amino)-5-methylpyrimidin-4-yl)benzamide], the IC50 is more than 50 µM against CYP2C9; more than 50 µM at CYP3A4; 0.00192 µM on JAK1 (setting [7]); more than 50 µM against CYP2D6; 0.00065 µM at JAK2 (setting [4]); more than 50 µM at CYP2C19. This compound registered an IC50 on CYP1A2 of more than 50 µM. The results for the microsomal CLint at 1 μM in series [1] and in [2] were 49.2 µL/min/mg and 33.7 µL/min/mg, respectively.
Turning to `Cc1cnc(Nc2cnn(C3CCN(CC#N)CC3)c2)nc1-c1ccc(C(=O)NCC#N)cc1` [Example 1, N-(Cyanomethyl)-4-(2-((1-(1-(cyanomethyl)piperidin-4-yl)-1H-pyrazol-4-yl)amino)-5-methylpyrimidin-4-yl)benzamide], the IC50 at TYK2 (IC50 TYK2 (10 nM) (Km ATP), TYK2 10 nM, Km ATP) was 0.00084 µM; against CYP2C9, more than 50 µM; on CYP3A4, more than 50 µM; against JAK1 (setting [7]), 0.00179 µM; at CYP2D6, more than 50 µM; on JAK2V617F, 0.0378 µM. Further, the half-inhibitory concentration (IC50) on JAK2 (setting [3]) is 0.00134 µM; on JAK2 (setting [4]) it was 0.00042 µM; against CYP2C19, more than 50 µM; at CYP1A2 it was more than 50 µM. Also, the microsomal CLint at 1 μM in series [1] is 15 µL/min/mg; in series [2], 14.9 µL/min/mg.
`C[C@@H](C#N)NC(=O)c1ccc(-c2nc(Nc3cnn(C4CCN(C)CC4)c3)ncc2F)cc1` [Example 50, (S)—N-(1-cyanoethyl)-4-(5-fluoro-2-((1-(1-methylpiperidin-4-yl)-1H-pyrazol-4-yl)amino)pyrimidin-4-yl)benzamide]: the IC50 on TYK2 (setting [5]) is 0.218 µM; at CYP2C9 it was more than 50 µM; against CYP3A4, more than 50 µM; against JAK1 (setting [6]) it was 0.0912 µM; on CYP2D6 it was more than 50 µM; on JAK2V617F it was 0.186 µM. The IC50 against JAK2 (setting [3]) was 0.11 µM; against CYP2C19, more than 50 µM; at CYP1A2 it was more than 50 µM. For the same compound, the microsomal CLint at 1 μM in series [2] came out at 8.92 µL/min/mg.
Turning to `CC[C@@H](C#N)NC(=O)c1ccc(-c2nc(Nc3cnn(C(C)C(F)(F)F)c3)ncc2C)cc1` (stereo partly drawn) [Example 195, N—((S)-1-cyanopropyl)-4-(5-methyl-2-((1-(1,1,1-trifluoropropan-2-yl)-1H-pyrazol-4-yl)amino)pyrimidin-4-yl)benzamide], the IC50 was 0.00542 µM on TYK2 (setting [5]); more than 50 µM against CYP2C9; more than 50 µM at CYP3A4; 0.00361 µM against JAK1 (setting [6]); 30.7 µM against CYP2D6; 0.0611 µM on JAK2V617F. In addition, the values for the IC50 against JAK2 (setting [3]), at CYP2C19 and on CYP1A2 were 0.0264 µM, more than 50 µM and more than 50 µM, respectively.
As to `CC[C@@H](C#N)NC(=O)c1ccc(-c2nc(Nc3cnn(CCO)c3)ncc2Cl)cc1` [Example 167, (S)-4-(5-Chloro-2-((1-(2-hydroxyethyl)-1H-pyrazol-4-yl)amino)pyrimidin-4-yl)-N-(1-cyanopropyl)benzamide], the IC50 was 0.00264 µM on TYK2 (setting [5]); 38.1 µM against CYP2C9; more than 50 µM against CYP3A4; 0.0012 µM at JAK1 (setting [6]); 37.8 µM against CYP2D6; 0.0044 µM on JAK2 (setting [3]). For the same compound, the IC50 at CYP2C19 and on CYP1A2 was more than 50 µM each time. Further, the microsomal CLint at 1 μM in series [1] was found to be 14.4 µL/min/mg; in series [2] it was 7.06 µL/min/mg.
On to `CC[C@@H](C#N)NC(=O)c1ccc(-c2nc(Nc3cnn(CCO)c3)ncc2C)cc1` [Example 172, (S)—N-(1-cyanopropyl)-4-(2-((1-(2-hydroxyethyl)-1H-pyrazol-4-yl)amino)-5-methylpyrimidin-4-yl)benzamide], for which the IC50 was 0.00174 µM on TYK2 (setting [5]); more than 50 µM on CYP2C9; more than 50 µM against CYP3A4; 0.00193 µM at JAK1 (setting [6]); more than 50 µM at CYP2D6; 0.0246 µM against JAK2 (setting [3]). In addition, the IC50 on CYP2C19 and against CYP1A2 was more than 50 µM throughout. Also, the figures for the microsomal CLint at 1 μM in series [1] and in [2] were 14.8 µL/min/mg and 5.05 µL/min/mg, respectively.
